Like-named read-outs stand apart in the source and are kept apart here. Positions of bridges follow the written chain, without caps; N, C: chain ends. Non-standard residues stand in square brackets, D forms with d. Residues, ends and D or L forms follow the SMILES beside them. No end group written: not given here. S5 = C=CCCC[C@](C)(N)C(=O)O; Nle = CCCC[C@H](N)C(=O)O
Assays:
[1] = FIGURE 16C
Text: Table printed on a drawing sheet, FIGURE 16C
First reader's note: The sheet prints two blocks (626-662 and 638-673 series) under one head; per the description the half-lives are in the presence of chymotrypsin at pH 7.

[2] = FIGURE 16F
Text: Table printed on a drawing sheet, FIGURE 16F

[3] = test system: syncytia formation; test: HIV syncytial formation assay; format: cell-based, HIV-1
Method: Functional assays can also be used to evaluate the modified polypeptides activity. In culture, multinucleated giant cells or “syncytia” form as a result of direct cell-cell fusion between HIV-1-infected and uninfected CD4-positive cells. In the syncytia formation assay, an indicator cell line expressing the CD4 receptor, and a fusogenic cell line that lacks the CD4 receptor but contains HIV-1 proteins on the surface, fuse to generate 70-100 multinucleated giant cells in culture within 48 h. Syncytia are then counted using an inverted microscope. The ability of stabilized alpha helix of gp41 (SAH-gp41) compounds to inhibit syncytia formation in a dose-responsive fashion is used as a functional measure of fusion inhibition, for which IC50s can be determined and compared with peptides T20 and T649 (Brenner, T. J., et al. The Lancet, 1991. 337(8748): p. 1001-1005; Madani, N., et al., Journal of Virology, 2007. 81(2): p. 532-538).
The compounds of the invention were assayed for inhibition of syncytial formation using methods well known to those skilled in the art. Equal amounts of either T20/gp41(638-673) or SAH-gp41(626-645)A were added to the media.

[4] = Circular dichroism, calculated α-helical content; format: physicochemical; conditions: for α-helical content: comparative CD spectra, 20-mer residues 626-645
Method: The α-helicity of stapled modified polypeptides can be compared to their unmodified counterparts by circular dichroism. CD spectra can be obtained on a Jasco J-710 or Aviv spectropolarimeter at 20° C. using the following standard measurement parameters: wavelength, 190-260 nm; step resolution, 0.5 nm; speed, […]; accumulations, 10; response, 1 sec; bandwidth, 1 nm; path length, 0.1 cm. The α-helical content of each peptide is calculated by dividing the mean residue ellipticity [Θ]222obs by the reported [Θ]222obs for a model helical peptide (Forood, B., E. J. Feliciano, and K. P. Nambiar, PNAS, 1993. 90(3): p. 838-842; J. Martin Scholtz, Biopolymers, 1991. 31(13): p. 1463-1470; Lawless, M. K., et al., Biochemistry, 1996. 35(42): p. 13697-13708) or using, for example, the Aviv machine using CDNN software developed by Brohm in order to deduce five different secondary structure fractions (helix, parallel and antiparallel beta-sheet, beta-turn and random coil). Protein Engineering, 1992. 5(3); p. 191-195
To optimize the activity of tSAH-gp41 peptides, an alternative strategy based upon inserting one or more hydrocarbon staples into the full-length gp41-HR-2 constructs was pursued (FIG. 11, 12).

[5] = test system: HIV-1 HXBc2; test: Luciferase-based HIV infectivity assay, HXBc2; format: cell-based; conditions: compared to T20
Method: Recombinant HIV-1 bearing the envelope glycoproteins from three distinct HIV-1 strains, HXBc2, ADA, and HXBc2P 3.2, and a negative control virus bearing the amphotropic murine leukemia virus (A-MLV) envelope glycoproteins, were evaluated.

[6] = test system: pepsin; test: Protease exposure under acidic conditions: pepsin, pH 2; conditions: pepsin solution (protease exposure under acidic conditions)

Compound: SAH-gp41(626-662)(A,F): doubly stapled gp41(626-662) HIV-1 fusion inhibitor peptide (LTWAEWDAEINNYTSLIHSLIEESQNQAEKNAQELLE; not fully specified (bridges); also: doubly stapled, places not given here)
- half-life [1]: 5.02 h
- half-life [2]: 34 h

Compound: CCCC[C@H](NC(C)=O)C(=O)N[C@H](C(=O)N[C@@H](Cc1c[nH]c2ccccc12)C(=O)N[C@@]1(C)CCCC=CCCC[C@@](C)(C(=O)N[C@@H](CCC(=O)O)C(=O)N[C@H](C(=O)N[C@@H](CC(N)=O)C(=O)N[C@@H](CC(N)=O)C(=O)N[C@@H](Cc2ccc(O)cc2)C(=O)N[C@H](C(=O)N[C@@H](CO)C(=O)N[C@@H](CC(C)C)C(=O)N[C@H](C(=O)N[C@@H](Cc2c[nH]cn2)C(=O)N[C@@H](CO)C(=O)N[C@@H](CC(C)C)C(N)=O)[C@@H](C)CC)[C@@H](C)O)[C@@H](C)CC)NC(=O)[C@H](CC(=O)O)NC(=O)[C@H](Cc2c[nH]c3ccccc23)NC(=O)[C@H](CCC(=O)O)NC1=O)[C@@H](C)O [SAH-gp41(626-645)(A)] (Ac-[Nle]TW[S5]EWD[S5]EINNYTSLIHSL-NH2; staple 4-8; N-terminus and C-terminus assumed)
- inhibition of syncytia formation (words) [3]: markedly enhanced inhibitory activity
- inhibition of syncytia formation (words) ([3]; listed as SAH-gp41(626-645)A): inhibited syncytial formation more so than unmodified control polypeptides
- α-helical content [4]: 48%
- anti-HXBc2 activity [5]: significant anti-HXBc2 activity

Compound: enfuvirtide
- half-life at 25 μM [6]: 4 min
- calculated α-helical content ([4]; CD spectra at physiologic pH): ~25%

Compound: gp41(626-645): unstapled 20-mer truncation of T649v consisting of residues 626-645 ([Nle]TW[Nle]EWDREINNYTSLIHSL) [reference compound]
- inhibition of syncytia formation (words) [3]: only modest anti-syncytial activity
- α-helical content [4]: 20%

Source: US10259848B2, “Compositions and methods comprising hydrocarbon-stapled polypeptides” (Dana-Farber Cancer Institute, Inc., priority 2008, dated 2019)
